Read-outs that look alike come from different tables or passages of the source.
Columns and labels:
LT2 PhoP^C = test: MIC determination by broth microdilution; assay type: cell-based, Salmonella enterica serovar Typhimurium; conditions: Table 3; ∼10^5 cfu/ml; three biological replicates
Procedure: (§1) MIC values were determined by broth microdilution according to standard protocols with a few modifications ([26]). An overnight bacterial cell culture, supplemented with the appropriate antibiotic when needed, was diluted 1:100 in fresh MHB and grown to OD600 0.5. The obtained culture was diluted to ∼10^5 cfu/ml or 10^6 cfu/ml, as indicated, in non-cation-adjusted MHB. Subsequently, 190 μl bacterial solution was dispensed into a 96-well plate (Thermo Fisher Scientific) along with 10 μl of a 20x PPNA, PNA or peptide working solution. Growth was monitored by measuring the OD at 600 nm every 20 min in a Synergy H1 plate reader (Biotek) with continuous double-orbital shaking (237 cpm) at 37°C for 24 h.
(§2) Fig. S5. Growth k inetics for MIC determ ination of 10^5 cfu/m l Salmonella wt (LT 2) and its isogenic
(§3) Pho PC m utant in the presen ce of var ying co ncentra tio n s of the in dicat ed co njugat e s. ( A) KFF-acpP,
(§4) KFF-acpP-scram bled (scr) or KFF peptide in s erial dilutions from 10 µM to 0.3 µM. ( B) RXR- acpP,
(§5) RXR- acpP-scram bled (scr) or RXR peptide in serial dilutions from 10 µM to 0.3 µ M. ( C) T at-acpP,
(§6) T at-acpP-scram bled (scr) or T at peptide in serial dilutions from 20 µM to 0.6 µM. Data represent
(§7) the average of three biological replicates, error bars indicate standard error of the m ean (SEM).
(§8) (1 picture or pasted object on this page, not shown here)

[1] = system: wild-type (wt) Salmonella enterica serovar Typhimurium strain SL1344; conditions: for MIC: non-cation-adjusted MHB, 37°C, 24 h
Procedure: as §1

SL1344 ΔphoP = test: MIC determination by broth microdilution; assay type: cell-based, Salmonella enterica serovar Typhimurium; conditions: Table 3; ∼10^5 cfu/ml; three biological replicates
Procedure: as §1
Fig. S4. Growth kinetics for MIC determ ination of 10^5 cfu/m l Salmonella wt (SL1344) and its isogenic ∆phoP m utant in the pres ence of var ying concentrations of the indicated conjugates. ( A) KFF-acpP, KFF-acpP-scram bled (scr) or KFF peptide in serial dilutions from 10 µM to 0.3 µM. ( B) RXR- acpP, RXR-acpP-scram bled (scr) or RXR peptide in seria l d ilutions f rom 10 µM to 0. 3 µM. ( C) T at-acpP, T at-acpP-scrambled (scr) or T at peptide in serial dilutions from 20 µM to 0.6 µM. D ata represent the average of three biological replicates, error bars indicate standard er ror of the m ean […]
as §8

[2] = system: wild-type Salmonella enterica serovar Typhimurium strain LT2; test: MIC determination by broth microdilution; assay type: cell-based; conditions: Table 3; ∼10^5 cfu/ml; three biological replicates
Procedure: as §1, §2, §3, §4, §5, §6, §7, §8

[3] = system: Salmonella gene expression; test: RNA-seq transcriptomic response; assay type: cell-based, Salmonella enterica serovar Typhimurium; conditions: 15 min
Procedure: Bacterial overnight cultures were diluted 1:100 in fresh MHB and grown to OD600 0.5. The obtained cultures were diluted to ∼10^6 cfu/ml in non-cation-adjusted MHB. Afterward, the bacterial solution was transferred into low-binding 5 ml tubes (LABsolute) along with the 20× PNA, peptide or PPNA solution. The final concentrations were 5 μM for KFF- and RXR-PNAs, and 10 μM for Tat-PNAs. Equimolar concentrations were used for the respective peptide control conditions. As a negative control, cells were treated with the respective volume of sterile nuclease-free water, which was used as solvent for the test compounds.
A time kinetic was performed for subsequent northern blot analysis (5, 10, 15 min), in which the reaction was stopped at the indicated time points by using RNAprotect Bacteria (Qiagen). For RNA-seq analyses, adding RNAprotect Bacteria at 15 min post treatment stopped the reactions with the indicated PPNA constructs or the respective peptide. After vortexing for 5 s, the samples were incubated at room temperature for 10 min, followed by cell pelleting at 4°C and 21 100 ×g for 20 min. Pellets were directly used for RNA isolation or stored at –20°C (<2 days) until further processing. RNA was purified from bacterial pellets using isolation protocol #3, as described above (0.5 mg/ml lysozyme, miRNeasy).
DNase treatment, cDNA library preparation and sequencing was conducted at Vertis (Munich, Germany). The RNA samples were first fragmented using ultrasound (4 pulses of 30 s each at 4°C). Then, an oligonucleotide adapter was ligated to the 3′ ends of the RNA molecules. First-strand cDNA synthesis was performed using M-MLV reverse transcriptase and the 3′ adapter as primer. The first-strand cDNA was purified and the 5′ Illumina TruSeq sequencing adapter was ligated to the 3′ end of the antisense cDNA. The resulting cDNA was PCR-amplified to about 10–20 ng/μl using a high fidelity DNA polymerase. The cDNA was purified using the Agencourt AMPure XP kit (Beckman Coulter Genomics) and was analyzed by capillary electrophoresis. For Illumina NextSeq sequencing, the samples were pooled in approximately equimolar amounts. The cDNA pool was sequenced on an Illumina NextSeq 500 system using 75 bp read length.
Reads from the RNA-Seq experiments were trimmed, filtered and mapped against the S. enterica subsp. enterica serovar Typhimurium SL1344 reference genome and the three plasmids pSLT_SL1344, pCol1B9_SL1344 (other name is p2), and pRSF1010_SL1344 ([19]). BBDuk was applied to trim bases with a Phred quality score of <10, and adapters were removed simultaneously. Reads were then mapped against the reference genome using BBMap (v38.84) and then assigned genomic features, including both coding sequences and annotated sRNAs ([19],[29]) using the featureCounts method of the Subread (2.0.1) package.
All downstream analysis was performed using packages from the R/Bioconductor project. The raw read counts were imported and analyzed with edgeR (v3.30.0). Each set of PNA-peptide conjugate experiments (i.e. experiments with KFF, RXR and Tat peptide) was analyzed simultaneously. Genes with less than 14.6 counts per million (CPM) in at least three libraries were filtered. This cutoff value was calculated using 10/L, where L is the library size of the smallest sample (minimum library size) in millions.
Raw read counts were normalized by trimmed mean of M values (TMM) normalization. Differential expression analysis was conducted using edgeR ([31]). Estimation of quasi-likelihood (QL) dispersions was then run with the […] function. Then contrasts between all samples versus the water controls were created as input for the glmQLTest function.
Genes with an absolute fold change >2 and an adjusted P-value (Benjamini–Hochberg, ([32])) <0.001 were considered differentially expressed.

[4] = Table 1, ∼10^5 cfu/ml, lowest concentration with OD600 < 0.1
[5] = Table 2, ∼10^6 cfu/ml, performed three times
[6] = edgeR, versus water, 5 μM KFF-/RXR-constructs, 10 μM Tat-constructs, triplicates, listed as PNAKFFscr
[7] = edgeR, versus water, 5 μM, triplicates
[8] = RNA-seq, 5 μM, listed as RXR-acpP-scrambled
[9] = edgeR, versus water, 5 μM RXR-constructs, 10 μM Tat-constructs, triplicates, listed as PNARXRscr

Row | Sequence | MIC in μM, LT2 PhoP^C (LT2 PhoP^C) | MIC [1, 4] | MIC [1, 5] | MIC in μM, SL1344 wt ([1]; Table 3, ∼10^5 cfu/ml, three biological replicates) | MIC in μM, SL1344 ΔphoP (SL1344 ΔphoP) | MIC in μM, LT2 wt [2] | number of differentially expressed genes ([3]; absolute fold change >2 and FDR-adjusted P-value <0.001 versus water, 5 μM KFF-/RXR-constructs, 10 μM Tat-constructs) | upregulation of AmgR transcript levels ([3]; RNA-seq, 5 μM, listed as KFF-acpP-scrambled) | logFC mig-14 [3, 6] | logFC virK [3, 6] | logFC SL1344_1602 [3, 7] | logFC cdh-a [3, 7] | logFC yfbE [3, 7] | number of downregulated sRNAs, apart from the induction of AmgR [3, 8] | upregulation of mig-14 [3, 8] | logFC yfiA ([3]; edgeR, versus water, 5 μM KFF-/RXR-constructs, 10 μM Tat-constructs, triplicates) | logFC SL1344_0066A [3, 9] | logFC SL1344_2742 [3, 9] | logFC mgtA [3, 9] | logFC yihO [3, 7]
1 | KFFKFFKFFK [KFF-acpP-scr] | >10 µM | >10 µM | >10 µM | >10 µM | ≥10 µM | >10 µM | 10 | ~2 fold | 1.6196 | 2.3333 | 1.058 | 0.9654 | 0.9577 |  |  |  |  |  |  | 
2 | RXRRXRRXRRXRXB [RXR-acpP-scr, RXR peptide conjugated to scrambled control PNA] | >10 µM | >10 µM | >10 µM |  | 5 µM | 10 µM |  |  |  |  |  |  |  | three | 1.92 fold | 1.5255 | 4.581 | 3.203 | 1.779 | 3.308

Source: paper PMC8096218, “Global RNA profiles show target selectivity and physiological effects of peptide-delivered antisense antibiotics” (Nucleic Acids Research, 2021)
